In US12178840B2, “Method and compositions comprising a CT20 peptide” (UNIVERSITY OF CENTRAL FLORIDA RESEARCH FOUNDATION, INC., priority 2014, dated 2024):
Residues, ends and D or L forms follow the SMILES beside them.

Legend:
MDA-MB-231 cells = experiment: Cell viability by flow cytometry (Sytox AADvanced / F2N12S), time course; format: cell-based, human; settings: 75 ug/mL
Protocol: (§1) Measurement of cell viability: Cells at 60% confluency were treated with CT20p at a dose of 75 ug/mL for varying lengths of time. Following treatment, cells were collected and stained with Sytox AADvanced and F2N12S Violet Ratiometric Apoptosis kit (Invitrogen). Data was acquired by flow cytometry on a FACS Canto (BD Biosciences), and analyzed with FCSExpress software (DeNovo).
(§2) The cytotoxicity of CT20p to the cell lines was also assessed. To do this, cells were treated with the effective dose of CT20p in a time course-experiment, and membrane symmetry and permeability were examined by flow cytometry (FIG. 5B). […] BT-549 cells, on the other hand, were resistant to the effects of the peptide.

BT-549 cells = experiment: as above; format: cell-based, human; settings: 75 ug/mL
Protocol: as §1, §2

[1] = target: T1, Purified recombinant CCTβ (Homo sapiens, UniProt P78371); experiment: Pull-down with purified recombinant CCTβ; format: binding; settings: 0.1 nmol CCTβ, CT20p-Biotin 0.1 to 4 nmol
T1 construct: purchased MyBioSource; host or cells: E. coli
T1 sequence (P78371 1-535): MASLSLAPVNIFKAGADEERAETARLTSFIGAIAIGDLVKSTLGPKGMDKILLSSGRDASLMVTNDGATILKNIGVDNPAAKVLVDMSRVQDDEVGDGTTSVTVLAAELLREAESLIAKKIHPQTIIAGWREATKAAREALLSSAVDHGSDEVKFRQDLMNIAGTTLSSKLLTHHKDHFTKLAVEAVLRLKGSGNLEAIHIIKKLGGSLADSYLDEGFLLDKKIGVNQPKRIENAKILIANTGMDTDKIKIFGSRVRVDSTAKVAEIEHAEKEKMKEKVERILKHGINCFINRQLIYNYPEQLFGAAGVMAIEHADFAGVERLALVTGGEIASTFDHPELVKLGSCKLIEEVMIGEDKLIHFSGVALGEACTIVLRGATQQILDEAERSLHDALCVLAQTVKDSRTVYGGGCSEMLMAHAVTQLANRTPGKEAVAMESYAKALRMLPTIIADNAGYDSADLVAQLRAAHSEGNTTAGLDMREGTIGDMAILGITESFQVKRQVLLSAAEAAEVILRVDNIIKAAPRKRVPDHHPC
Protocol: FIG. 9 is representative data showing that CT20p binds directly to CCTβ. Purified recombinant CCTβ was tested for interaction with CT20p as described in Materials and Methods.
Pull down experiments: Lysate pull-downs were performed with 200 ug cell lysate, obtained by douncing as described above. Lysates were pre-cleared with streptavidin-agarose beads (Pierce), then incubated with […] of CT20-Biotin or biotin for 3 hours at room temperature, followed by overnight incubation at 4° C. with streptavidin-agarose beads. Beads were washed thoroughly with wash buffer (25 mM Tris, 150 mM NaCl, 0.1% NP40, pH7.4), then heated in 4× loading buffer (Invitrogen) for analysis by SDS-PAGE. Mass spectrometric analysis was performed by Moffit Cancer Center (Tampa, FL). Mass spectrometry results presented are of proteins with at least two unique peptides identified, and that were not recovered with biotin-only pull down. In-cell pull downs were performed by first delivering CT20p-Biotin encapsulated in nanoparticles to viable cells at a dose of 75 μg/mL for varying lengths of time. Following treatment, cells were collected and lysed by douncing. 200 ug of cell lysate were then incubated with streptavidin-agarose beads overnight at 4° C., and pull-down was completed as described above. […]

[2] = test system: tubulin in MDA-MB-231 cells; experiment: Fixed cell immunofluorescence of tubulin; format: cell-based, human; settings: 24 hours of CT20p treatment
Protocol: Fixed cell immunofluorescence: Cells were seeded on glass coverslips (Fisher) in a 6-well plate at a density of 150,000 cells/well. Cells at 60% confluency were treated with CT20p or left untreated for 24 hours. After CT20p treatment, cells were stained with Mitotracker Red CMXRos (Life Technologies) at a concentration of 200 nM for 30 minutes, before being fixed in ice cold methanol for 10 minutes at −20° C. Cells were then permeabilized in 0.1% Triton X-100 for 10 minutes at 37° C. Samples were blocked in 5% normal goat serum (Santa Cruz) for 30 minutes at 37° C., then incubated with primary antibody α-tubulin (DM1A) (Santa Cruz) for 3 hours at 37° C. Secondary antibody was goat α-mouse IgG-FITC (Santa Cruz) and was applied for 1 hour at room temperature. Coverslips were mounted in UltraCruz mounting media (Santa Cruz), which contains DAPI for nuclear staining. Images were obtained with a Zeiss LSM 710 microscope, using a Zeiss 63× Pan-Apocromat oil immersion lens and Zeiss Zen software. To determine average tubulin levels per cell, the amount of FITC fluorescence intensity per region of interest was divided by the number of cells in the field. At least four images containing between 5 and 12 cells were quantified for each condition. Image analysis was done using Volocity software (Perkin Elmer).
CT20p's effect on the other main client of CCT, tubulin, was also examined. […]

With `CC[C@H](C)[C@H](NC(=O)[C@@H](NC(=O)[C@H](CC(C)C)NC(=O)[C@H](CO)NC(=O)[C@H](C)NC(=O)[C@@H](NC(=O)[C@H](CC(C)C)NC(=O)[C@@H](NC(=O)CNC(=O)[C@H](C)NC(=O)[C@@H](NC(=O)[C@H](Cc1ccccc1)NC(=O)[C@@H](NC(=O)[C@@H](NC(=O)[C@@H](NC(C)=O)C(C)C)[C@@H](C)O)[C@@H](C)CC)C(C)C)C(C)C)[C@@H](C)O)[C@@H](C)O)C(=O)N[C@@H](Cc1c[nH]c2ccccc12)C(=O)N[C@@H](CCCCN)C(=O)N[C@@H](CCCCN)C(=O)N[C@@H](CCSC)C(=O)NCC(N)=O` [CT20] (Ac-VTIFVAGVLTASLTIWKKMG-NH2) the “Sensitivity to CT20p cytotoxicity” value (MDA-MB-231 cells) was “highly susceptible”, the “Sensitivity to CT20p cytotoxicity” value (BT-549 cells) was “resistant” and the “Direct interaction with CCTβ” value [1] was “does interact directly with CCTβ”. The “Amount of tubulin per cell” value [2] was “significant decrease”.
